Source: US20170053081A1, “METHODS AND MATERIALS FOR CHARACTERIZING INTESTINAL BARRIER FUNCTION” (THE ARIZONA BOARD OF REGENTS ON BEHALF OF THE UNIVERSITY OF …, priority 2014, published 2017)

Experiments:
[1] = system: intestinal barrier function; assay: Intestinal barrier function biomarker panel (plasma FABP2, claudin 3, citrulline) in children after cardiopulmonary bypass; settings: for Association with changes in post-operative FABP2, claudin3, or citrulline: caudal or spinal, post-operative pain management, p>0.05
Procedure: A panel of plasma biomarkers was used to reflect intestinal epithelial cellular and paracellular structure (FABP2 and claudin 3), as well as cellular and paracellular function (citrulline and DSPT). In particular, twenty children aged newborn to 18 years undergoing repair or palliation of congenital heart disease with CPB were examined. Plasma FABP2, claudin 3, and citrulline were measured after induction of general anesthesia, and at 6, 12, 24, 48, and 120 hours post-operatively.
(§1) Inclusion criteria were age greater than 37 weeks corrected gestational age and a diagnosis of CHD requiring surgical repair or palliation with the use of CPB. Exclusion criteria were known pre-existing gastrointestinal dysfunction, immune dysfunction, active intracranial bleeding, and anuric renal failure. All operations were performed by two surgeons. CPB and anesthetic regimens were per usual care.
Blood samples for measurement of plasma FABP2, claudin 3, and citrulline were collected from indwelling intravascular catheters pre-operatively after induction of general anesthesia, but prior to CPB, and at 6, 12, 24, 48, and ≧120 hours post-operatively. […]
Plasma concentrations of human FABP2 were evaluated by ELISA according to the manufacturer's protocol (Standards range: 10 000 pg/ml to 156.25 pg/ml) (R&D Systems, Minneapolis, Minn.). Claudin 3 concentration was evaluated by ELISA in plasma from patients according to manufacturer's instruction (standard range from 20 ng/ml to 0.312 ng/ml) (Uscn life science Inc, Wuhan, China). […]
Samples were separated on Phenomenex Luna HILIC 200A SB-C18, 3 μm, 150×2.00 mm column (Torrance, Calif.) using Paradigm MS4B-multi-dimensional separations module (Michrom BioResources, Inc., Auburn, Calif.). […] Full injection loop (20 μl) was used to introduce 2 μl sample diluted with 18 μl of solvent B. AB SCIEX API 3000 triple-quadrupole mass spectrometer (Applied Biosystems, Foster City, Calif.) controlled by Analyst 1.5.1 in-line with the HPLC was used for citrulline detection and quantitative analysis.

plasma FABP2 = assay: Serial plasma FABP2 (ELISA) in children after cardiopulmonary bypass for CHD, by treatment factor; settings: children after CPB; for Association of infusion with elevation in plasma FABP2 over time: vasoactive infusions, any dose, p<0.01
Procedure: as §1
Blood samples for measurement of plasma FABP2, claudin 3, and citrulline were collected from indwelling intravascular catheters pre-operatively after induction of general anesthesia, but prior to CPB, and at 6, 12, 24, 48, and ≧120 hours post-operatively. Final samples at ≧120 hours were collected between 120 and 168 hours post-operatively to evaluate the return to baseline values. Control samples were obtained intra-operatively from the CPB circuits prior to connection to the patient. […]
Clinical data included candidate factors likely to alter intestinal barrier function. […] Vasoactive-inotrope score (VIS) was determined at time of sample collection and was previously validated (see, e.g., Gaies, et al., Pediatric critical care medicine: a journal of the Society of Critical Care Medicine and the World Federation of Pediatric Intensive and Critical Care Societies 2010; 11:234-8).
Plasma concentrations of human FABP2 were evaluated by ELISA according to the manufacturer's protocol (Standards range: 10 000 pg/ml to 156.25 pg/ml) (R&D Systems, Minneapolis, Minn.). Claudin 3 concentration was evaluated by ELISA in plasma from patients according to manufacturer's instruction (standard range from 20 ng/ml to 0.312 ng/ml) (Uscn life science Inc, Wuhan, China).
Data were analyzed using STATA SE/11 software. […] As citrulline values were normally distributed, the effect of binary variables on citrulline were evaluated with a Student's t-test. […] The effect continuous and categorical variables over time on repeated log-transformed plasma FABP2, log-transformed claudin 3, and citrulline was evaluated with multi-level mixed-effects linear regression. […]

Structure (SMILES) | Association with changes in post-operative FABP2, claudin3, or citrulline [1] | Association of infusion with elevation in plasma FABP2 over time (plasma FABP2) | Risk for intestinal barrier dysfunction ([1]; children undergoing CPB, post-operative use to maintain mean arterial blood pressure) | Association with elevated plasma FABP2 (plasma FABP2; p=0.03)
CN1CC[C@]23c4c5ccc(O)c4O[C@H]2[C@@H](O)C=C[C@H]3[C@H]1C5 [morphine] | not associated with changes |  |  | 
CCCCN1CCCCC1C(=O)Nc1c(C)cccc1C (stereo not drawn) [bupivicaine] | not associated with changes |  |  | 
NC(=O)CC[C@@H]1NC(=O)[C@H](Cc2ccccc2)NC(=O)[C@H](Cc2ccc(O)cc2)NC(=O)[C@@H](N)CSSC[C@@H](C(=O)N2CCC[C@H]2C(=O)N[C@@H](CCCN=C(N)N)C(=O)NCC(N)=O)NC(=O)[C@H](CC(N)=O)NC1=O [vasopressin] |  | associated with | increase the risk for intestinal barrier dysfunction | 
CNC[C@H](O)c1ccc(O)c(O)c1 [epinephrine] |  | associated with |  | associated with elevated plasma FABP2
